Measured values reported in patent US20020173491A1, “DAPD combination therapy with inosine monophosphate dehydrogenase inhibitor” (priority 2000, published 2002).
Read-outs that look alike come from different tables or passages of the source. Marks after values point to notes of the source that are not given here.

Legend:
[1] = test system: xxLAI strain of HIV-1; test: microbe, parasite or virus in culture; format: cell-based; conditions: for effect of addition of 0.25 μM MPA on anti-HIV activity in PBMCs / effect of addition of 20 μM RBV on anti-HIV activity in PBMCs / Fold difference in EC50, 0.01 μM MPA / Fold difference in EC50, 0.1 μM MPA / Fold difference in EC50, 0.25 μM MPA / Fold difference in EC50, 5 μM RBV / Fold difference in EC50, 10 μM RBV / Fold difference in EC50, 20 μM RBV: PBMC; for effect of addition of 0.25 μM MPA on anti-HIV activity in PBMCs / effect of addition of 20 μM RBV on anti-HIV activity in PBMCs: all the concentrations tested; for Fold difference in EC50, 0.01 μM MPA: control vs with 0.01 μM MPA; for Fold difference in EC50, 0.1 μM MPA: control vs with 0.1 μM MPA; for Fold difference in EC50, 0.25 μM MPA: control vs with 0.25 μM MPA; for Fold difference in EC50, 5 μM RBV: control vs with 5 μM RBV; for Fold difference in EC50, 10 μM RBV: control vs with 10 μM RBV; for Fold difference in EC50, 20 μM RBV: control vs with 20 μM RBV
Procedure: In this assay, cell supernatants were incubated on microelisa wells coated with antibodies to HIV-1 p24 core antigen. Subsequently, anti-HIV-1 conjugate labeled with horseradish peroxidase was added. The labeled antibody bound to the solid phase antibody/antigen complexes previously formed. Addition of the tetramethylbenzidine substrate results in blue color formation. The color turned yellow when the reaction is stopped. The plates were then analyzed on a plate reader set at 490 nm. The absorbance is a direct measurement of the amount of HIV-1 produced in each well and a decrease in color indicates decreased viral production. […] PBMC were obtained from HIV-1 negative donors by banding on Ficoll gradients, stimulated with phytohemaglutinin (PHAP) for 48 hours prior to infection with HIV-1, and infected with virus for 4 hours at 37° C. at a MOI of 0.001. […] Plates were incubated for 3 days at 37° C. The concentration of virus in each well was determined using the NEN p24 assay. Using the absorption values of the cell controls as 100% protection and drug free, virus infected cells as 0% protection, a dose response curve is generated by plotting percent protection on the Y axis and drug concentration on the X axis. From this curve, EC50 values were determined.
Compound dilutions and assay conditions were as described above.
MPA was also tested for activity against the xxLAI strain of HIV-1 in PBMCs using a p24 based Elisa assay. In this assay, cell supernatants are incubated on microelisa wells coated with antibodies to HIV-1 p24 core antigen. Subsequently, anti-HIV-1 conjugate labeled with horse radish peroxidase is added. The labeled antibody binds to the solid phase antibody/antigen complexes previously formed. Addition of the tetramethylbenzidine substrate results in blue color formation. The color turns yellow when the reaction is stopped. The plates are then analyzed on a plate reader set at 490 nm. The absorbance is a direct measurement of the amount of HIV-1 produced in each well and a decrease in color indicates decreased viral production. Dilutions of MPA were made in cell culture media in a 96 well plate, the highest concentration of MPA tested was 1 μM. PBMC were obtained from HIV-1 negative donors by banding on Ficoll gradients, stimulated with phytohemaglutinin (PHAP) for 48 hours prior to infection with HIV-1, and infected with virus for 4 hours at 37° C. at a MOI of 0.001. Infected cells were seeded into 96 well plates containing 4-fold serial dilutions of MPA. Plates were incubated for 3 days at 37° C. The concentration of virus in each well was determined using the NEN p24 assay. Using the absorption values of the cell controls as 100% protection and drug free, virus infected cells as 0% protection, a dose response curve is generated by plotting % protection on the Y axis and drug concentration on the X axis. From this curve EC50 values were determined.
Compound dilutions and assay conditions were as described above. The concentrations of MPA used were 1, 0.5, 0.25, 0.1, and 0.01 μM.

[2] = test system: HIV-1 mutant K65R; test: MT2/XTT combination assay, resistant virus K65R; format: cell-based; conditions: for EC50: Human immunodeficiency virus 1, K65R; for fold difference from WT: K65R
Procedure: (§1) Triplicate samples of compound were tested. MT2 cells were infected with xxLAI at a multiplicity of infection (MOI) of 0.03 for 3 hours at 37° C. in 5% CO2. The infected cells were plated at 3.0×10^4/well into a 96 well plated containing drug dilutions and incubated for 5 days at 37° C. in CO2. […] This method has been modified into a susceptibility assay and has been used in a variety of in vitro antiviral tests and is readily adaptable to any system with a lytic virus (Weislow, O. S., et. al. 1989). Using the absorption values of the cell controls as 100% protection and no drug, virus infected cells as 0% protection, a dose response curve is generated by plotting % protection on the Y axis and drug concentration on the X axis. From this curve EC50 values were determined.
(§2) Assays were performed in the MT2 cell line as described above in the XXT sensitivity assay section.
(§3) The restraint strains analyzed included viruses created by site directed mutagenesis, K65R and L74V, as well as a recombinant virus containing mutations at positions 98S, 116Y, 151M and 215Y. The wild type backbone in which these mutants were created, xxLAI, was also analyzed for comparison. The concentrations of DAPD and DXG tested were as described in the above MT2/XTT combination assay section.
(§4) The concentrations of MPA used were 1, 0.5, 0.25, 0.1, and 0.01 μM. Assays were performed in the MT2 cell line as described in section 3.1.
as §3, with “section 4.1. MPA was tested in” for “the above MT2/XTT”, “with DAPD and DXG at a fixed concentration of 0.25 μM.” for “assay section.”

[3] = test system: recombinant virus A98S, F116Y, Q151M, T215Y; test: MT2/XTT combination assay, recombinant resistant virus; format: cell-based, HIV-1; conditions: for fold difference from WT: A98S; for EC50: Human immunodeficiency virus 1, A98S
Procedure: as §1, §2, §3, §4
as §3, with “section 4.1. MPA was tested in” for “the above MT2/XTT”, “with DAPD and DXG at a fixed concentration of 0.25 μM.” for “assay section.”

[4] = Human immunodeficiency virus 1, PBMC, read-out: Mean EC50, Control, PMBCs, no MPA
[5] = Human immunodeficiency virus 1, PBMC, read-out: Mean EC50, Control, PMBCs, no RBV
[6] = read-out: Mean EC50, 0.01 μM MPA, PMBCs, with 0.01 μM MPA
[7] = read-out: Mean EC50, 0.1 μM MPA, PMBCs, with 0.1 μM MPA
[8] = read-out: Mean EC50, 0.25 μM MPA, PMBCs, with 0.25 μM MPA
[9] = read-out: Mean EC50, 1 μM RBV, PMBCs, with 1 μM RBV
[10] = read-out: Mean EC50, 5 μM RBV, PMBCs, with 5 μM RBV
[11] = read-out: Mean EC50, 10 μM RBV, PMBCs, with 10 μM RBV
[12] = read-out: Mean EC50, 20 μM RBV, PMBCs, with 20 μM RBV

Question: For `Nc1nc(N)c2ncn(C3COC(CO)O3)c2n1` (single isomer, unassigned; (-)) [DAPD], which EC50 [1, 4] is on record?
Answer: Its EC50 is 4100 nM.

Question: And the EC50 [1, 5]?
Answer: The EC50 was 4500 nM.

Question: What about the “effect of addition of 0.25 μM MPA on anti-HIV activity in PBMCs” value ([1]; with 0.25 μM MPA) of the same molecule?
Answer: Its value is “completely inhibited HIV replication”.

Question: What about the “effect of addition of 20 μM RBV on anti-HIV activity in PBMCs” value ([1]; with 20 μM RBV) of the same molecule?
Answer: The value was “completely inhibited HIV replication”.

Question: And the “Fold difference in EC50, 0.01 μM MPA” value [1]?
Answer: The value was 4.6 fold.

Question: And the “Fold difference in EC50, 0.1 μM MPA” value [1]?
Answer: Its value is 22.8 fold.

Question: And the “Fold difference in EC50, 0.25 μM MPA” value [1]?
Answer: The value was greater than 50 fold.

Question: What about the “Fold difference in EC50, 5 μM RBV” value [1] of the same molecule?
Answer: The value was 6.4 fold.

Question: What about the “Fold difference in EC50, 10 μM RBV” value [1] of the same molecule?
Answer: The value was 28 fold.

Question: What about the “Fold difference in EC50, 20 μM RBV” value [1] of the same molecule?
Answer: Its value is greater than 150 fold.

Question: And the EC50 [1, 6]?
Answer: The EC50 was 900 nM.

Question: And the EC50 [1, 7]?
Answer: The EC50 was 180 nM.

Question: What about the EC50 [1, 8] of the same molecule?
Answer: Its EC50 is less than 0.2 nM.

Question: What about the EC50 [1, 9] of the same molecule?
Answer: Its EC50 is 2260 nM.

Question: And the EC50 [1, 10]?
Answer: Its EC50 is 700 nM.

Question: What about the EC50 [1, 11] of the same molecule?
Answer: Its EC50 is 160 nM.

Question: And the EC50 [1, 12]?
Answer: Its EC50 is less than 30 nM.

Question: And the EC50 ([2]; compound alone (Table 4))?
Answer: Its EC50 is 43700 nM.

Question: What about the EC50 ([2]; compound alone (Table 10)) of the same molecule?
Answer: Its EC50 is 41000 nM.

Question: What about the “fold difference from WT” value ([2]; compound alone (Table 4)) of the same molecule?
Answer: Its value is “(5.5)^b fold”.

Question: And the “fold difference from WT” value ([2]; compound alone (Table 10))?
Answer: Its value is 6 fold.

Question: And the “fold difference from WT” value ([3]; compound alone (Table 4))?
Answer: Its value is “(>12) fold”.

Question: And the “fold difference from WT” value ([3]; compound alone (Table 10))?
Answer: Its value is 6 fold.

Question: And the EC50 ([3]; compound alone (Table 4))?
Answer: Its EC50 is greater than 100000 nM.

Question: And the EC50 ([3]; compound alone (Table 10))?
Answer: Its EC50 is 85000 nM.

Question: For `Nc1nc2c(ncn2C2COC(CO)O2)c(=O)[nH]1` (single isomer, unassigned; (-)) [DXG], which EC50 [1, 4] is on record?
Answer: Its EC50 is 140 nM.

Question: And the EC50 [1, 5]?
Answer: The EC50 was 150 nM.

Question: What about the “effect of addition of 0.25 μM MPA on anti-HIV activity in PBMCs” value ([1]; with 0.25 μM MPA) of the same molecule?
Answer: The value was “completely inhibited HIV replication”.

Question: What about the “effect of addition of 20 μM RBV on anti-HIV activity in PBMCs” value ([1]; with 20 μM RBV) of the same molecule?
Answer: Its value is “completely inhibited HIV replication”.

Question: What about the “Fold difference in EC50, 0.01 μM MPA” value [1] of the same molecule?
Answer: The value was 9.3 fold.

Question: What about the “Fold difference in EC50, 0.1 μM MPA” value [1] of the same molecule?
Answer: The value was 23.3 fold.

Question: What about the “Fold difference in EC50, 0.25 μM MPA” value [1] of the same molecule?
Answer: Its value is greater than 50 fold.

Question: What about the “Fold difference in EC50, 5 μM RBV” value [1] of the same molecule?
Answer: The value was 5.6 fold.

Question: And the “Fold difference in EC50, 10 μM RBV” value [1]?
Answer: The value was greater than 15 fold.

Question: And the “Fold difference in EC50, 20 μM RBV” value [1]?
Answer: Its value is greater than 15 fold.

Question: What about the EC50 [1, 6] of the same molecule?
Answer: The EC50 was 15 nM.

Question: What about the EC50 [1, 7] of the same molecule?
Answer: The EC50 was 6 nM.

Question: And the EC50 [1, 8]?
Answer: Its EC50 is less than 0.2 nM.

Question: What about the EC50 [1, 9] of the same molecule?
Answer: The EC50 was 75 nM.

Question: What about the EC50 [1, 10] of the same molecule?
Answer: Its EC50 is 27 nM.

Question: And the EC50 [1, 11]?
Answer: The EC50 was less than 10 nM.

Question: And the EC50 [1, 12]?
Answer: The EC50 was less than 10 nM.

Question: And the EC50 ([2]; compound alone (Table 4))?
Answer: The EC50 was 3900 nM.

Question: What about the EC50 ([2]; compound alone (Table 10)) of the same molecule?
Answer: The EC50 was 4000 nM.

Question: And the “fold difference from WT” value ([2]; compound alone (Table 4))?
Answer: The value was 5 fold.

Question: And the “fold difference from WT” value ([2]; compound alone (Table 10))?
Answer: The value was 5.6 fold.

Question: What about the “fold difference from WT” value ([3]; compound alone (Table 4)) of the same molecule?
Answer: The value was 20 fold.

Question: And the “fold difference from WT” value ([3]; compound alone (Table 10))?
Answer: The value was 8.4 fold.

Question: And the EC50 ([3]; compound alone (Table 4))?
Answer: Its EC50 is 16000 nM.

Question: What about the EC50 ([3]; compound alone (Table 10)) of the same molecule?
Answer: Its EC50 is 16000 nM.
